Laboratory results as given in patent publication US20240010726A1, “LFA-1 SIGNALLING MEDIATOR FOR USE IN CANCER THERAPY” (Universität Basel, priority 2020, published 2024).

Assays:
PC3-PIP tumor cells = test: Anti-PSMA CAR T cell in vivo experiment with Mg2+-restricted diet; set-up: species or system NSG mice; details: Mg^2+-depleted diet vs control diet; anti-PSMA CAR T cells i.v.
Protocol: FIG. 3: Magnesium regulates LFA-1 mediated T cell activation and cytotoxicity as well BiTE- and CAR T-cell functionality. (a) Glycolytic switch of murine WT and LFA-1^−/− CTLs upon injection of anti-CD3/28 Ab in medium containing 1.2 mM Mg^2+ and 0 mM Mg^2+, presented as quantification of summarized data with n=4 mice. (b) Calcium flux in WT and LFA-1^−/− Jurkat T cells stimulated with anti-CD3 Ab in 1.2 mM and 0 mM Mg^2+ medium, respectively. Cells were loaded with Fluo4, and signal intensity as recorded by plate reader, was normalized to unstimulated baseline values. […] Quantified results of n=3 mice with 3 technical replicates each. […] The effector to target cell ratio was 3:1. Results are quantified of n=3 mice with 3 technical replicates each. (e) Representative CD11a (LFA-1) surface expression on human naïve and EM CD8 T cells, PHA T cell blasts and REP T cells, assessed by flow cytometry. […] Data is presented as quantified results of n=5 healthy donors (f, g, h), n=3 healthy donors with 2 technical replicates each or n=1 healthy donor with 4 technical replicates (j). […] Data is presented as quantified results of n=1 healthy donor with 4 technical replicates. […] (p) Abundance of IFNγ in cell culture supernatants corresponding to the conditions depicted in (o) at 24 hours was determined by ELISA (n=8, 3 independent experiments). […] Tumor volume was monitored twice per week. […]

human naïve CD8 T cells = test: Metabolic flux analysis, glycolytic switch of naïve CD8 T cells; assay type: cell-based; details: anti-CD3 or anti-CD3/anti-CD28 Ab; 0 mM vs 1.2 mM Mg^2+
Protocol: FIG. 2: Extracellular magnesium promotes memory-specific activation via LFA-1. Glycolytic switch of human EM CD8 T cells (a) and naïve CD8 T cells (b) subsets upon injection of anti-CD3 Ab only, or anti-CD3 and anti-CD28 Ab, was assessed by metabolic flux analysis in medium containing either 1.2 mM Mg^2+, 0 mM Mg^2+, or medium which was reconstituted from 0 mM to 1.2 mM Mg^2+ immediately prior to activation (0→1.2 mM Mg^2+). (a) Results for human effector memory (EM) and (b) for human naïve CD8 T cells. Glycolytic switch was quantified by subtracting […] measurements. (c) Flow cytometric analysis of surface activation markers on human EM CD8 T cells 24 hours after activation by plate-bound anti-CD3 Ab and soluble anti-CD28 Ab, in 1.2 mM and 0 mM Mg^2+ media, respectively. (d) Abundance of inflammatory cytokines in corresponding EM CD8 T cell culture supernatants, determined by CBA. (e) CD11a (LFA-1) surface expression on human naïve and EM CD8 T cells as well PHA T cell blasts. Flow cytometry-based assessment of total LFA-1 expression assessed by mAb TS2/4 (f), closed conformation of αL by mAb HI111 (g), extended conformation of LFA-1 by mAb Kim127 (h), open head-piece conformation of LFA-1 by mAb m24 (i), phosphorylation of focal adhesion kinase (FAK) […] as well TNF expression (k)±TCR-induced activation in different extracellular Mg^2+ concentrations. […]

Question: How did the “CAR T cell-mediated tumor rejection (tumor growth)” value (PC3-PIP tumor cells) turn out when `[Mg+2]` [Mg^2+, Magnesium] was run?
Answer: The value was “negatively impacted CAR T cell-mediated tumor-rejection”.

Question: What about the “Glycolytic switch (ECAR) of naïve CD8 T cells” value (human naïve CD8 T cells) of the same compound?
Answer: Its value is “no impaired activation-induced upregulation of glycolysis”.
